Assay [1] deals with CXCL8(1-77) binding to heparin. As to conditions: compared with CXCL9(74-103) missing 5 to 12 NH2-terminal residues; cited from earlier work. As to the method: To further investigate the role of the COOH-terminal amino acids, the ability of CXCL9(74-93) to inhibit binding of chemokines to heparin and HS was evaluated. CXCL9(74-93) and CXCL9(74-103) together with a COOH-terminal peptide of one of the strongest GAG-binding chemokines, namely, CXCL4(47-70), were compared in an ELISA-like assay to compete with CXCL8 for heparin bind ...

Assay [2] concerns respiratory syncytial virus. As to conditions: cited from earlier work. The source says:
(§1) In several inflammatory diseases, an enhanced expression of chemokines leads to the pathological and continuous accumulation of activated leukocytes in tissues and consequently tissue damage. Thus, a reduction of chemokine activity at sites of excessive inflammation is needed. Although a lot of efforts were invested in the development of small molecule chemokine receptor antagonists, since the discovery of chemokine receptors as members of the GPCR family about two decades ago, success stories are limited to a few drugs that entered the market ([66]). Recently, inhibition of chemokine–GAG inte ...

The subject of the next assay is herpes simplex virus-1. To be noted: cited from earlier work.
Source text: as §1

A further assay has as its system dengue virus. As to conditions: cited from earlier work.
Source text: as §1

For assay [3], the system named is neutrophil adhesion to the endothelium. The assay can be described thus: CXCL8-induced neutrophil adhesion in the murine cremaster muscle model. It is filed as in vivo, mouse (C57Bl/6J). As to conditions: 108 µg peptide i.v., Figure 8. How it is done:
Mice were anesthetized by intraperitoneal injection of 200 mg/kg ketamine (Bayer Inc. Animal Health) and 10 mg/kg xylazine (Bimeda-MTC). After anesthesia, the right jugular vein was cannulated for maintenance of anesthesia and to permit the delivery of the fluorescence-labeled antibodies. Mice were injected intravenously (via jugular vein) with either saline or CXCL9(74-103) 5 min prior to an intrascrotal injection of 1 or 3 µg CXCL8. The animals were placed on a water-heated operating table to maintain body temperature at ~37°C. The depth of anesthesia was controlled by regularly monitoring peripheral reflexes. The cremaster muscle was prepared as previously described ([50]). […] Single unbranched cremasteric venules with a diameter of ~25–40 μm were selected and their blood flow was recorded during a 5 min period. […] A 512 × 512 pixel back-thinned EMCCD camera (C9100-13, Hamamatsu, Bridgewater, NJ, USA) was used for fluorescence detection. […] Images captured using the spinning disk were processed and analyzed in Volocity 4.20. Periods of 5 min/field of view were recorded at 45, 60, and 90 min after CXCL8 administration. A neutrophil was considered to be adherent if it remained stationary for at least 30 s, and total neutrophil adhesion was quantified as the number of adherent cells within a 100-µm length of venule. […]

The subject of assay [4] is CXCL8-induced neutrophil migration. The assay can be described thus: CXCL8-induced neutrophil migration to the knee cavity. As to conditions: 66 µg peptide i.v., 1 µg CXCL8 intra-articular, C57BL/6, 3 h, n ≥ 5, Figure 5. It is filed as in vivo, mouse (C57BL/6). How it is done: In vivo neutrophil extravasation to the peritoneal or the knee cavity was examined, respectively, by intraperitoneal or intra-articular injection, of endotoxin-free recombinant CXCL8(1-77) (PeproTech) or vehicle (PBS) in female NMRI or C57BL/6 mice, as described previously ([42], [48]). Simultaneously, synthetic CXCL9 peptide was co-injected either intraperitoneally or injected intravenously. After 2 h (peritoneal cavity) or 3 h (knee cavity), mice were sacrificed. The peritoneal cavity was washed with saline enriched with 2% FCS and 20 U/ml heparin and total leukocyte counts were determined. For the preparation of cytospins, 10^5 cells were used and absolute number and percentage of neutrophils in the lavages were determined in duplicate independently by two researchers by differential microscopic counting. […] The number of total leukocytes was determined by counting leukocytes in a Neubauer chamber after staining with Turk’s solution. […]
Figure 5 CXCL9(74-93) inhibits CXCL8-induced but not monosodium urate (MSU) crystal-induced neutrophil migration to the knee cavity. […] Simultaneously, 66 µg of CXCL9(74-93) was injected intravenously and 3 h post injection the number of total cells (A) and neutrophils (B) were evaluated by washing the cavity and differentially counting the leukocyte subtypes on May-Grunwald-Giemsa-stained cytospins. […]

“74KKKQKNGKKHQKKKVLKVRKSQRSRQKKTT103 [CXCL9(74-103), COOH-terminal peptide of CXCL9]”: in assay [1], the “competition with CXCL8 for heparin binding” value is reported as “more potently competes with CXCL8 for binding to heparin”. For the same substance, the “inhibition of viral infection of cells” value (in assay [2]; with herpes simplex virus-1; in the assay with dengue virus) was “able to inhibit viral infection of cells” each time. Also, the “adherence of neutrophils to the endothelium” value in assay [3] (1 µg CXCL8 intrascrotal) and in assay [3] (3 µg CXCL8 intrascrotal) was “reduced the adherence of neutrophils to the endothelium significantly” in each case.
In the case of “74KKKQKNGKKHQKKKVLKVRK93 [CXCL9(74-93), COOH-terminal peptide of CXCL9 lacking the 10 COOH-terminal amino acids of CXCL9(74-103)]”, in assay [4] (control 13.3 × 10^3), the “neutrophils in the joint upon CXCL8” value was 0.67 × 10^3 neutrophils. Also, the “percentage of neutrophils in the joint upon CXCL8” value in assay [4] (control 60.5%) came out at 17.5%.

These data come from publication PMC5423902, “CXCL9-Derived Peptides Differentially Inhibit Neutrophil Migration In Vivo through Interference with Glycosaminoglycan Interactions” (Frontiers in Immunology, 2017).
